# From US8192962B2, “Processes for detecting toxic substances” (Daikin Industries, Ltd., priority 2001, dated 2012)
# Test system: Detoxification protein genes
# Test: DNA chip mRNA expression in yeast, detoxification protein genes (Table 8)
# Format: cell-based, Saccharomyces cerevisiae S288C
# Experimental: Yeast (Saccharomyces cerevisiae S288C (α SUC2mal mel gap2 CUP1)) were incubated at 25° C. on YPD medium (yeast extract 1%, polypepton 2%, glucose 2%). One of toxic chemical substances was added to the cells at logarithmic growth phase, and the cells were further incubated for two hours. Cells were cultured without any chemical substance in the same condition, and were used as control. Concentrations of the chemical substances were defined to inhibit the growth of the yeast but not lead to death.
# After completion of the incubation, the culture was centrifuged to collect the cells. To the cells, sodium acetate buffer (50 mM sodium acetate, 10 mM EDTA, 1% SDS) was added, and the mixture was shaken at 65° C. for five minutes, followed by returning to room temperature, and obtaining the supernatant, of which the procedures were repeated two times. To the supernatant, ½ amount of a solution of phenol/chloroform was added, and the mixture was centrifuged to give a supernatant, which was added with an equal amount of chloroform, and the mixture was centrifuged to give a supernatant. To the supernatant, an equal amount of isopropanol containing 0.3 M sodium acetate was added, and the mixture was allowed to stand at room temperature for 30 minutes, after which the mixture was centrifuged to give a sediment of the whole RNAs. Seventy % ethanol was added to the sediment, and the mixture was again centrifuged to give a sediment, which was then dried and dissolved in water. mRNA was isolated from the whole RNAs as followings. In view of the fact that a poly A chain is attached to the 3′ terminus of mRNA, a polynucleotide having a poly T structure which was immobilized on the surface of latex beads was used to trap the mRNA, and then the mRNA was washed and eluted with spine column (Oligotex-dT30<Super>mRNA Purification Kit, Takara). Reverse transcription of the mRNA was conducted with a reverse transcriptase (Super Script II Reverse Transcriptase; catalogue No. 18064-014, GibcoBRL) using fluorescence-labeled nucleotides to give cDNAs that were introduced with Cy3-dUTP or Cy5-dUTP during the reverse transcription.
# The labeled cDNAs were dissolved in TE buffer (10mM Tris-HCl/1 mM EDTA, pH8.0), and the solution was dropped on the DNA chip containing the whole genes of yeast (DNA Chip Research Inc. Japan) so that the cDNAs were hybridized on the DNA chip at 65° C. for over 12 hours. The fluoresces intensity of the DNA chip was read with a scanner, and the ratio relative to the fluorescence intensity resulting from the absence of chemical substance was estimated as the following, which is shown in Tables 1 to 9: […]
compound,measurement,setting,value
"[Cl][Pb][Cl] [(4), PbCl2]",The level of expressed mRNA in the presence of chemical substance/The level of expressed mRNA in the absence of chemical substance,yeast gene YBL064C,1.7
same,The level of expressed mRNA in the presence of chemical substance/The level of expressed mRNA in the absence of chemical substance,yeast gene YBR008C,0.7
same,The level of expressed mRNA in the presence of chemical substance/The level of expressed mRNA in the absence of chemical substance,yeast gene YBR145W,0.9
same,The level of expressed mRNA in the presence of chemical substance/The level of expressed mRNA in the absence of chemical substance,yeast gene YBR244W,0.9
same,The level of expressed mRNA in the presence of chemical substance/The level of expressed mRNA in the absence of chemical substance,yeast gene YBR293W,1.8
same,The level of expressed mRNA in the presence of chemical substance/The level of expressed mRNA in the absence of chemical substance,yeast gene YCL035C,1.7
same,The level of expressed mRNA in the presence of chemical substance/The level of expressed mRNA in the absence of chemical substance,yeast gene YCL069W,0.8
same,The level of expressed mRNA in the presence of chemical substance/The level of expressed mRNA in the absence of chemical substance,yeast gene YCR083W,1.8
same,The level of expressed mRNA in the presence of chemical substance/The level of expressed mRNA in the absence of chemical substance,yeast gene YDL100C,0.8
same,The level of expressed mRNA in the presence of chemical substance/The level of expressed mRNA in the absence of chemical substance,yeast gene YDL168W,0.9
same,The level of expressed mRNA in the presence of chemical substance/The level of expressed mRNA in the absence of chemical substance,yeast gene YDR256C,1.3
same,The level of expressed mRNA in the presence of chemical substance/The level of expressed mRNA in the absence of chemical substance,yeast gene YDR453C,3.0
same,The level of expressed mRNA in the presence of chemical substance/The level of expressed mRNA in the absence of chemical substance,yeast gene YDR513W,2.6
same,The level of expressed mRNA in the presence of chemical substance/The level of expressed mRNA in the absence of chemical substance,yeast gene YDR538W,1.2
same,The level of expressed mRNA in the presence of chemical substance/The level of expressed mRNA in the absence of chemical substance,yeast gene YEL027W,1.1
same,The level of expressed mRNA in the presence of chemical substance/The level of expressed mRNA in the absence of chemical substance,yeast gene YEL065W,0.4
same,The level of expressed mRNA in the presence of chemical substance/The level of expressed mRNA in the absence of chemical substance,yeast gene YER185W,7.0
same,The level of expressed mRNA in the presence of chemical substance/The level of expressed mRNA in the absence of chemical substance,yeast gene YFL050C,2.2
same,The level of expressed mRNA in the presence of chemical substance/The level of expressed mRNA in the absence of chemical substance,yeast gene YGL013C,0.7
same,The level of expressed mRNA in the presence of chemical substance/The level of expressed mRNA in the absence of chemical substance,yeast gene YGL254W,0.6
same,The level of expressed mRNA in the presence of chemical substance/The level of expressed mRNA in the absence of chemical substance,yeast gene YGR088W,2.4
same,The level of expressed mRNA in the presence of chemical substance/The level of expressed mRNA in the absence of chemical substance,yeast gene YGR138C,1.2
same,The level of expressed mRNA in the presence of chemical substance/The level of expressed mRNA in the absence of chemical substance,yeast gene YGR197C,1.0
same,The level of expressed mRNA in the presence of chemical substance/The level of expressed mRNA in the absence of chemical substance,yeast gene YGR209C,1.5
same,The level of expressed mRNA in the presence of chemical substance/The level of expressed mRNA in the absence of chemical substance,yeast gene YGR224W,1.2
same,The level of expressed mRNA in the presence of chemical substance/The level of expressed mRNA in the absence of chemical substance,yeast gene YHL040C,0.4
same,The level of expressed mRNA in the presence of chemical substance/The level of expressed mRNA in the absence of chemical substance,yeast gene YHL047C,1.0
same,The level of expressed mRNA in the presence of chemical substance/The level of expressed mRNA in the absence of chemical substance,yeast gene YHR008C,1.8
same,The level of expressed mRNA in the presence of chemical substance/The level of expressed mRNA in the absence of chemical substance,yeast gene YHR048W,1.7
same,The level of expressed mRNA in the presence of chemical substance/The level of expressed mRNA in the absence of chemical substance,yeast gene YHR053C,1.1
same,The level of expressed mRNA in the presence of chemical substance/The level of expressed mRNA in the absence of chemical substance,yeast gene YHR055C,1.2
same,The level of expressed mRNA in the presence of chemical substance/The level of expressed mRNA in the absence of chemical substance,yeast gene YIR002C,0.6
same,The level of expressed mRNA in the presence of chemical substance/The level of expressed mRNA in the absence of chemical substance,yeast gene YIR038C,2.0
same,The level of expressed mRNA in the presence of chemical substance/The level of expressed mRNA in the absence of chemical substance,yeast gene YJL101C,1.2
same,The level of expressed mRNA in the presence of chemical substance/The level of expressed mRNA in the absence of chemical substance,yeast gene YJR104C,1.2
same,The level of expressed mRNA in the presence of chemical substance/The level of expressed mRNA in the absence of chemical substance,yeast gene YKL026C,4.9
same,The level of expressed mRNA in the presence of chemical substance/The level of expressed mRNA in the absence of chemical substance,yeast gene YKL064W,0.8
same,The level of expressed mRNA in the presence of chemical substance/The level of expressed mRNA in the absence of chemical substance,yeast gene YKR066C,0.7
same,The level of expressed mRNA in the presence of chemical substance/The level of expressed mRNA in the absence of chemical substance,yeast gene YKR105C,1.5
same,The level of expressed mRNA in the presence of chemical substance/The level of expressed mRNA in the absence of chemical substance,yeast gene YKR106W,1.4
same,The level of expressed mRNA in the presence of chemical substance/The level of expressed mRNA in the absence of chemical substance,yeast gene YLL028W,0.5
same,The level of expressed mRNA in the presence of chemical substance/The level of expressed mRNA in the absence of chemical substance,yeast gene YLL057C,0.9
same,The level of expressed mRNA in the presence of chemical substance/The level of expressed mRNA in the absence of chemical substance,yeast gene YLL060C,2.6
same,The level of expressed mRNA in the presence of chemical substance/The level of expressed mRNA in the absence of chemical substance,yeast gene YLR043C,1.8
same,The level of expressed mRNA in the presence of chemical substance/The level of expressed mRNA in the absence of chemical substance,yeast gene YLR046C,0.8
same,The level of expressed mRNA in the presence of chemical substance/The level of expressed mRNA in the absence of chemical substance,yeast gene YML028W,1.3
same,The level of expressed mRNA in the presence of chemical substance/The level of expressed mRNA in the absence of chemical substance,yeast gene YML116W,1.4
same,The level of expressed mRNA in the presence of chemical substance/The level of expressed mRNA in the absence of chemical substance,yeast gene YMR015C,0.9
same,The level of expressed mRNA in the presence of chemical substance/The level of expressed mRNA in the absence of chemical substance,yeast gene YMR038C,0.8
same,The level of expressed mRNA in the presence of chemical substance/The level of expressed mRNA in the absence of chemical substance,yeast gene YNL239W,1.2
same,The level of expressed mRNA in the presence of chemical substance/The level of expressed mRNA in the absence of chemical substance,yeast gene YNL241C,1.0
same,The level of expressed mRNA in the presence of chemical substance/The level of expressed mRNA in the absence of chemical substance,yeast gene YNL259C,1.2
same,The level of expressed mRNA in the presence of chemical substance/The level of expressed mRNA in the absence of chemical substance,yeast gene YOL158C,0.9
same,The level of expressed mRNA in the presence of chemical substance/The level of expressed mRNA in the absence of chemical substance,yeast gene YOR031W,3.4
same,The level of expressed mRNA in the presence of chemical substance/The level of expressed mRNA in the absence of chemical substance,yeast gene YOR153W,1.1
same,The level of expressed mRNA in the presence of chemical substance/The level of expressed mRNA in the absence of chemical substance,yeast gene YOR247W,1.4
same,The level of expressed mRNA in the presence of chemical substance/The level of expressed mRNA in the absence of chemical substance,yeast gene YOR251C,1.8
same,The level of expressed mRNA in the presence of chemical substance/The level of expressed mRNA in the absence of chemical substance,yeast gene YOR273C,1.0
same,The level of expressed mRNA in the presence of chemical substance/The level of expressed mRNA in the absence of chemical substance,yeast gene YPL163C,0.9
same,The level of expressed mRNA in the presence of chemical substance/The level of expressed mRNA in the absence of chemical substance,yeast gene YPR200C,5.0
